Source: patent publication US20070026080A1, “Manufacturing process for tigecycline” (Wyeth, priority 2005, published 2007)

Assay: Strength and degradation profile of tigecycline 20 mg/mL bulk solutions by reversed phase HPLC (effect of temperature, time, pH, dissolved oxygen; Runs A to O)
Type: physicochemical
Details: 8° C.
Protocol: The contents of the sample vials are dissolved in diluent. The sample solution is diluted, if necessary, and chromatographed on a reversed phase column using gradient elution. Impurities are determined by comparing the impurity peak areas in the sample preparation chromatogram to the average area of tigecycline peaks in the standard preparation chromatograms obtained concomitantly.
Chromatographic Column—Length about 15 cm, inside diameter about 4.6 mm, packed with Inertsil ODS2, 5 μm size particles or equivalent.
Detector—Ultraviolet spectrophotometric detector capable of operating at 248 nm with a sensitivity of about 0.5 absorbance units full scale.
The results of additional studies to investigate the effect of processing parameters such as temperature, time, and dissolved oxygen content on the purity profile of tigecycline solutions using the following materials, methods and procedures are presented in Tables A to O.
The experiments were run in plastic glove bags under normal laboratory light conditions. Plastic glove boxes will be used to control the headspace of the beakers. The batch size was 200 mL. • 1. Prepare the glove bag with a mixture of nitrogen and air to achieve an oxygen level in the solution as per the design. • 2. Place the jacketed beaker on the magnetic stirrer. Connect it to the cooler. Set the cooler to the desired set point. • 3. Add 200 mL of SWFI in to the beaker. Allow equilibrating. Measure the temperature and oxygen content. When it reaches the desired condition, add accurately weighed API and mix until dissolved. If necessary use spatula to aid dissolution. For pH adjustments, use 4 mL of either 0.1N NaOH or 0.1N HCl and 196 mL of WFI for manufacture. • 4. After complete dissolution, Transfer about 5.5 mL of Solution in vials and stopper them. These vials will be stoppered at the appropriate headspace conditions. Place the vials in appropriate temperature conditions. • 5. Sample the vials at 1, 4, 8, 10, 12 and 24 hours. Send the samples for analysis. Freeze the 10, 12 and 24 samples at −20° C. for analysis the following day. • 6. Measure pH and record color of the solution at each time point. Results
The 1-hour samples were taken directly from the beakers. Samples for later time points were collected in stoppered vials processed in the atmosphere of the bag in order to simulate the headspace conditions then placed in water baths or refrigerator to maintain there respective temperature conditions. This was done to maintain safety in the lab. Disposable plastic glove bags require constant flow of a mixture of nitrogen and air to maintain headspace oxygen level that will result in the desired dissolved oxygen (DO) content in the sample. The pH of samples was measured at each sample points.
Strength and degradation profile was analyzed by HPLC as described above. […] Degradation was slightly higher at higher temperature condition.

[1] = Run #M, pH 7.7, Oxygen = 0.1 mg/L, 10 Hrs
[2] = Run #M, pH 7.7, Oxygen = 0.1 mg/L, 12 Hrs
[3] = Run #M, pH 7.7, Oxygen = 0.1 mg/L, 24 Hrs
[4] = Run #N, pH 8.2, Oxygen = 0.1 mg/L, 1 Hrs
[5] = Run #N, pH 8.2, Oxygen = 0.1 mg/L, 1R Hrs
[6] = Run #N, pH 8.2, Oxygen = 0.1 mg/L, 4 Hrs

For CN(C)c1cc(NC(=O)CNC(C)(C)C)c(O)c2c1C[C@H]1C[C@H]3[C@H](N(C)C)C(O)=C(C(N)=O)C(=O)[C@@]3(O)C(O)=C1C2=O [Tigecycline], the “RRT 1.12” value [1] was “BRL (BRL means below reporting limit (meaning less than 0.05% of tigecycline peak))”, the “RRT 1.45” value [1] was 0.07% and the “RRT 1.58” value [1] was “BRL (BRL means below reporting limit (meaning less than 0.05% of tigecycline peak))”. For the same molecule, the “RRT 1.64 Mino” value [1] was 0.09%, the “RRT 1.67 MW = 556” value [1] was “(<0.05) %” and the “RRT 1.85 MW = 597” value [1] was 0.08%. For the same molecule, the Strength [1] was 19.240 mg/mL, the Total [1] was 0.71% and the “RRT 0.12 MW = 633” value [2] was “BRL (BRL means below reporting limit (meaning less than 0.05% of tigecycline peak))”. The “RRT 0.23 MW = 572” value [2] was “BRL (BRL means below reporting limit (meaning less than 0.05% of tigecycline peak))”, the “RRT 0.50 MW = 601” value [2] was “BRL (BRL means below reporting limit (meaning less than 0.05% of tigecycline peak))” and the “RRT 0.55 MW = 583” value [2] was 0.07%. For the same molecule, the “RRT 0.58” value [2] was “BRL (BRL means below reporting limit (meaning less than 0.05% of tigecycline peak))”, the “RRT 0.64 9-Amino” value [2] was “BRL (BRL means below reporting limit (meaning less than 0.05% of tigecycline peak))” and the “RRT 0.74 Epimer” value [2] was 0.27%. The “RRT 0.76” value [2] was 0.05%, the “RRT 0.78 MW = 557” value [2] was “BRL (BRL means below reporting limit (meaning less than 0.05% of tigecycline peak))” and the “RRT 1.12” value [2] was “BRL (BRL means below reporting limit (meaning less than 0.05% of tigecycline peak))”. For the same molecule, the “RRT 1.45” value [2] was 0.07%, the “RRT 1.58” value [2] was “BRL (BRL means below reporting limit (meaning less than 0.05% of tigecycline peak))” and the “RRT 1.64 Mino” value [2] was 0.12%. The “RRT 1.67 MW = 556” value [2] was 0.07%, the “RRT 1.85 MW = 597” value [2] was 0.08% and the Strength [2] was 19.240 mg/mL. For the same molecule, the Total [2] was 0.73%, the “RRT 0.12 MW = 633” value [3] was “BRL (BRL means below reporting limit (meaning less than 0.05% of tigecycline peak))” and the “RRT 0.23 MW = 572” value [3] was “BRL (BRL means below reporting limit (meaning less than 0.05% of tigecycline peak))”. For the same molecule, the “RRT 0.50 MW = 601” value [3] was “BRL (BRL means below reporting limit (meaning less than 0.05% of tigecycline peak))”, the “RRT 0.55 MW = 583” value [3] was “BRL (BRL means below reporting limit (meaning less than 0.05% of tigecycline peak))” and the “RRT 0.58” value [3] was 0.08%. The “RRT 0.64 9-Amino” value [3] was “BRL (BRL means below reporting limit (meaning less than 0.05% of tigecycline peak))”, the “RRT 0.74 Epimer” value [3] was 0.29% and the “RRT 0.76” value [3] was “BRL (BRL means below reporting limit (meaning less than 0.05% of tigecycline peak))”. For the same molecule, the “RRT 0.78 MW = 557” value [3] was “BRL (BRL means below reporting limit (meaning less than 0.05% of tigecycline peak))”, the “RRT 1.12” value [3] was “BRL (BRL means below reporting limit (meaning less than 0.05% of tigecycline peak))” and the “RRT 1.45” value [3] was 0.09%. For the same molecule, the “RRT 1.58” value [3] was “BRL (BRL means below reporting limit (meaning less than 0.05% of tigecycline peak))”, the “RRT 1.64 Mino” value [3] was 0.09% and the “RRT 1.67 MW = 556” value [3] was “(<0.05) %”. The “RRT 1.85 MW = 597” value [3] was 0.08%, the Strength [3] was 19.193 mg/mL and the Total [3] was 0.62%. For the same molecule, the “RRT 1.12” value (Run #N, pH 8.2, Oxygen = 0.1 mg/L) was “BRL (BRL means below reporting limit (meaning less than 0.05% of tigecycline peak))”, the “RRT 0.12 MW = 633” value [4] was “BRL (BRL means below reporting limit (meaning less than 0.05% of tigecycline peak))” and the “RRT 0.23 MW = 572” value [4] was “BRL (BRL means below reporting limit (meaning less than 0.05% of tigecycline peak))”. The “RRT 0.50 MW = 601” value [4] was “BRL (BRL means below reporting limit (meaning less than 0.05% of tigecycline peak))”, the “RRT 0.55 MW = 583” value [4] was “BRL (BRL means below reporting limit (meaning less than 0.05% of tigecycline peak))” and the “RRT 0.58” value [4] was 0.07%. For the same molecule, the “RRT 0.64 9-Amino” value [4] was “BRL (BRL means below reporting limit (meaning less than 0.05% of tigecycline peak))”, the “RRT 0.74 Epimer” value [4] was 0.20% and the “RRT 0.76” value [4] was “BRL (BRL means below reporting limit (meaning less than 0.05% of tigecycline peak))”. For the same molecule, the “RRT 0.78 MW = 557” value [4] was “BRL (BRL means below reporting limit (meaning less than 0.05% of tigecycline peak))”, the “RRT 1.12” value [4] was “BRL (BRL means below reporting limit (meaning less than 0.05% of tigecycline peak))” and the “RRT 1.45” value [4] was 0.07%. The “RRT 1.58” value [4] was “BRL (BRL means below reporting limit (meaning less than 0.05% of tigecycline peak))”, the “RRT 1.64 Mino” value [4] was “(<0.05) %” and the “RRT 1.67 MW = 556” value [4] was “BRL (BRL means below reporting limit (meaning less than 0.05% of tigecycline peak))”. For the same molecule, the “RRT 1.85 MW = 597” value [4] was 0.11%, the Strength [4] was 19.343 mg/mL and the Total [4] was 0.46%. The “RRT 0.12 MW = 633” value [5] was “BRL (BRL means below reporting limit (meaning less than 0.05% of tigecycline peak))”, the “RRT 0.23 MW = 572” value [5] was “BRL (BRL means below reporting limit (meaning less than 0.05% of tigecycline peak))” and the “RRT 0.50 MW = 601” value [5] was “BRL (BRL means below reporting limit (meaning less than 0.05% of tigecycline peak))”. The “RRT 0.55 MW = 583” value [5] was 0.06%, the “RRT 0.58” value [5] was 0.06% and the “RRT 0.64 9-Amino” value [5] was “BRL (BRL means below reporting limit (meaning less than 0.05% of tigecycline peak))”. For the same molecule, the “RRT 0.74 Epimer” value [5] was 0.29%, the “RRT 0.76” value [5] was 0.05% and the “RRT 0.78 MW = 557” value [5] was “BRL (BRL means below reporting limit (meaning less than 0.05% of tigecycline peak))”. For the same molecule, the “RRT 1.45” value [5] was 0.09%, the “RRT 1.58” value [5] was “BRL (BRL means below reporting limit (meaning less than 0.05% of tigecycline peak))” and the “RRT 1.64 Mino” value [5] was 0.08%. The “RRT 1.67 MW = 556” value [5] was “BRL (BRL means below reporting limit (meaning less than 0.05% of tigecycline peak))”, the “RRT 1.85 MW = 597” value [5] was 0.09% and the Strength [5] was 19.415 mg/mL. The Total [5] was 0.72%, the “RRT 0.12 MW = 633” value [6] was “BRL (BRL means below reporting limit (meaning less than 0.05% of tigecycline peak))” and the “RRT 0.23 MW = 572” value [6] was “BRL (BRL means below reporting limit (meaning less than 0.05% of tigecycline peak))”. For the same molecule, the “RRT 0.50 MW = 601” value [6] was “BRL (BRL means below reporting limit (meaning less than 0.05% of tigecycline peak))”, the “RRT 0.55 MW = 583” value [6] was “BRL (BRL means below reporting limit (meaning less than 0.05% of tigecycline peak))” and the “RRT 0.58” value [6] was 0.07%. For the same molecule, the “RRT 0.64 9-Amino” value [6] was “BRL (BRL means below reporting limit (meaning less than 0.05% of tigecycline peak))”, the “RRT 0.74 Epimer” value [6] was 0.21% and the “RRT 0.76” value [6] was “BRL (BRL means below reporting limit (meaning less than 0.05% of tigecycline peak))”.
